Drawing on patent publication US7488740B2, “Substituted quinolin-4-ylamine analogues” (Neurogen Corporation, priority 2003, dated 2009), this text covers IC50 for six compounds.

The term IC50 denotes the concentration needed to halve the response being measured.

The target in this test is T1, human capsaicin receptor (Homo sapiens, UniProt Q8NER1).
T1 construct: A cDNA encoding full length human capsaicin receptor recited in U.S. Pat. No. 6,482,611 was subcloned in the plasmid pBK-CMV; expressed in transfected cells
T1 sequence (Q8NER1 whole entry): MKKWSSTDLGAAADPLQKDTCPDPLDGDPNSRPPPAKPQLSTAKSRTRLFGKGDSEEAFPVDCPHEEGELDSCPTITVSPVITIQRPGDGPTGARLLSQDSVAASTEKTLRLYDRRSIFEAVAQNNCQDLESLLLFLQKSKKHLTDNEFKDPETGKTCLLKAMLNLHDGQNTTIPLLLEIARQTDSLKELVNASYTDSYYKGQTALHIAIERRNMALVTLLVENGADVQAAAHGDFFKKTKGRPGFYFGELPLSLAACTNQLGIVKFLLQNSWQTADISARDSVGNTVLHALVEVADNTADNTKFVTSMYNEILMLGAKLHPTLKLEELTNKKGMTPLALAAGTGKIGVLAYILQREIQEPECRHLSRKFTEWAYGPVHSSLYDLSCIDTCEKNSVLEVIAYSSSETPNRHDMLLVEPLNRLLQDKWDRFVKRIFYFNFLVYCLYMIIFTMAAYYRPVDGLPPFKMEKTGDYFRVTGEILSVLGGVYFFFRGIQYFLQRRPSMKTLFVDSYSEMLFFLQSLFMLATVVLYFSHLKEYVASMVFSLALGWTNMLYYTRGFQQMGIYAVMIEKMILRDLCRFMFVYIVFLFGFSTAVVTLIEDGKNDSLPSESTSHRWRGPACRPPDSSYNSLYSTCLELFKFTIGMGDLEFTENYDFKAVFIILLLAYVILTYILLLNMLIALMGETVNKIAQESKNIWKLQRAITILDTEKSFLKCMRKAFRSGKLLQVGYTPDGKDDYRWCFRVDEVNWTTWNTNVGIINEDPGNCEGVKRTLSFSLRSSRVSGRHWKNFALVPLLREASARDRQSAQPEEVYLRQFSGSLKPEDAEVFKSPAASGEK
Nature of the test: Calcium mobilization assay (Example 6). The format is cell-based. As to conditions: concentration required to provide a 50% decrease in the fluorescence response of cells exposed to one IC50 of capsaicin. Put shortly:
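HEK293 clonal lines stably expressing full-length human capsaicin receptor, Fluo-3 AM loaded in KRH buffer pH 7.4. Compounds (final 1-5 μM) preincubated 0.5-6 h at room temperature in the dark, then capsaicin added at its predetermined IC50 concentration. FLIPR calcium signal at 30-60 s; IC50 = antagonist concentration giving 50% decrease.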
(In general: Calcium flux is commonly read through the fluorescence of an indicator in the cells.)

For `CC(C)COCc1cc(Nc2ccc(C(C)(C)O)cc2)c2ccc(-c3ncccc3Cl)nc2n1` [Compound 64, 2-(4-{[7-(3-chloropyridin-2-yl)-2-(isobutoxymethyl)-1,8-naphthyridin-4-yl]amino}phenyl)propan-2-ol], the IC50 is at most 1000 nM.

For `FC(F)(F)c1cnc(Nc2ccnc3nc(-c4ncccc4C(F)(F)F)ccc23)cn1` [Compound 131, N-[5-(trifluoromethyl)pyrazin-2-yl]-7-[3-(trifluoromethyl)pyridin-2-yl]-1,8-naphthyridin-4-amine], the IC50 is at most 1000 nM.

For the compound `CC(=O)c1ccc(Nc2cc(C(C)C)nc3nc(-c4ncccc4C(F)(F)F)ccc23)nc1` [Compound 116, 1-[6-({2-isopropyl-7-[3-(trifluoromethyl)pyridin-2-yl]-1,8-naphthyridin-4-yl}amino)pyridin-3-yl]ethanone], the IC50 was at most 1000 nM.

Turning to `CN(CC(=O)O)Cc1cc(Nc2ccc(C(F)(F)F)cc2)c2ccc(-c3ncccc3C(F)(F)F)nc2n1` [Compound 76, N-methyl-N-({4-{[4-(trifluoromethyl)phenyl]amino}-7-[3-(trifluoromethyl)pyridin-2-yl]-1,8-naphthyridin-2-yl}methyl)glycine], the IC50 is at most 1000 nM.

Regarding `CCCc1cc(Nc2ccc(Cl)cn2)c2ccc(-c3ncccc3C(F)(F)F)nc2n1` [Compound 122, N-(5-chloropyridin-2-yl)-2-propyl-7-[3-(trifluoromethyl)pyridin-2-yl]-1,8-naphthyridin-4-amine], the IC50 was at most 1000 nM.

`CC1CCCN1Cc1cc(Nc2ccc(C(F)(F)F)cc2)c2ccc(-c3ncccc3C(F)(F)F)nc2n1` (stereo not drawn) [Compound 49, 2-[(2-methylpyrrolidin-1-yl)methyl]-N-[4-(trifluoromethyl)phenyl]-7-[3-(trifluoromethyl)pyridin-2-yl]-1,8-naphthyridin-4-amine]: the IC50 is at most 1000 nM.
